Non-standard residues stand in square brackets, D forms with d. Residues, ends and D or L forms follow the SMILES beside them. No end group written: not given here.
Columns and labels:
[1] = target: T1, Aβ42 (Homo sapiens, UniProt P05067); assay: Sandwich immunoassay (6E10) for Aβ oligomers; format: biochemical; conditions: 2:1 and 1:1 molar ratios of inhibitor:Aβ42; from 4 and 8 h
T1 construct: Recombinant Aβ42, Ultrapure, was purchased from rPeptide, Bogart, Ga., USA; purchased rPeptide, Bogart, Ga., USA
Description: These inhibitors were also tested in an immunoassay technique for the detection of early-stage Aβ oligomers. This assay uses monoclonal anti-Aβ antibody 6E10 to capture Aβ from solution and a biotinylated form of 6E10 as the detection antibody, in a sandwich system. Monomeric Aβ has only a single 6E10 epitope, which is occupied by the capture antibody, and so it cannot subsequently bind to the detection antibody. On the other hand, multimeric Aβ has binding sites available for both capture and detection, giving rise to a strong immunoassay signal. In Aβ aggregation time-course experiments, this assay produces a signal before the ThT method, when only small oligomers are present.
The sandwich immunoassay used follows the method described previously by Taylor et al (28, 30). Briefly, 96-well ELISA plates (Maxisorb) were coated with mouse monoclonal antibody 6E10 diluted 1:1000 in assay buffer (Tris-buffered saline (TBS), pH 7.4, containing 0.05% gamma globulins and 0.005% Tween 20). […] Enhancer solution was added and the plates were read using the time-resolved fluorescence setting for europium on a Wallac Victor 2 plate reader.
This is a more sensitive test than the ThT assay for the detection of early oligomeric forms of Aβ [28]. […] Enhancer solution was added and the plates were read on a Wallac Victor 2 plate reader, using the time-resolved fluorescence setting for europium.

[2] = system: SHSY-5Y neuroblastoma cells; assay: LDH assay, protection against Aβ42-mediated toxicity; format: cell-based; conditions: 5 μM Aβ42 plus 0.1-10 μM peptide, 24 h
Description: For cell toxicity assays (Example 3), SHSY-5Y neuroblastoma cells were maintained in 10% Fetal Calf Serum supplemented Dulbecco's Modified Eagle Medium (DMEM, Gibco) under standard mammalian cell culture conditions. The cells were transferred to sterile 96-well growth plates at 20,000 cells/well and 4 wells per condition. To test for any toxic effects of RI-OR2-TAT alone on the cells, they were left to adhere for 24 h before the addition of the inhibitor (at 12.5, 25, 50, 100 and 200 μM), in DMEM. To look at the ability of RI-OR2-TAT to protect against Aβ toxicity, the cell growth medium was changed to Optimem (Invitrogen) and Aβ42, pre-aggregated (at 100 μM) for 24 h at 25° C. in PBS, was added to the cells at a concentration of 5 μM, together with various amounts (0, 0.1, 0.5, 1, 5 or 10 μM) of RI-OR2-TAT. In each case, after a further 24 h incubation period, the viability of the cells was assessed using a CytoTox 96® Non-Radioactive Cytotoxicity Assay (LDH) Assay (Promega) kit.

[3] = system: SHSY-5Y cells; assay: MTT cell viability assay, toxicity of PINPs alone; format: cell-based; conditions: 10 μM PINPs, 24 hours
Description: SHSY 5Y cells were grown and maintained in DMEM (Dulbecco's Modified Eagle Medium) supplemented with FBS under standard mammalian cell culture conditions. During treatment cells were kept in Optimem plus or minus peptide liposomes in 96 well plates at 20000 cells per well for 24 hours, again under standard culture conditions. For cell protection assays 5 μM of pre-aggregated Aβ1-42 was added at the same time as peptide liposomes. Cell viability was assessed for four wells for each treatment using a Promega CellTiter assay kit.

T1 sequence (P05067 672-713 limits assumed): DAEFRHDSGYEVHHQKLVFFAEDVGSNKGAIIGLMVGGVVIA

Compound	development of immunoassay signal (oligomer formation) [1]	effect on Aβ42 toxicity to cells [2]	toxicity to cells [3]	Absorbance units (560 nm) ([3]; untreated cells 3.608, lysed cells 0.654)
CC(=O)N[C@H](CCCNC(=N)N)C(=O)NCC(=O)N[C@H](Cc1ccccc1)C(=O)N[C@H](Cc1ccccc1)C(=O)N[C@@H](C(=O)N[C@H](CC(C)C)C(=O)N[C@H](CCCCN)C(=O)NCC(=O)N[C@H](CCCNC(=N)N)C(=O)N[C@H](CCCNC(=N)N)C(=O)N[C@H](CCCNC(=N)N)C(=O)N[C@H](CCCNC(=N)N)C(=O)N[C@H](CCC(N)=O)C(=O)N[C@H](CCCNC(=N)N)C(=O)N[C@H](CCCNC(=N)N)C(=O)N[C@H](CCCCN)C(=O)N[C@H](CCCCN)C(=O)N[C@H](CCCNC(=N)N)C(=O)NCC(=O)N[C@H](Cc1ccc(O)cc1)C(N)=O)C(C)C [RI-OR2-TAT, Ac-rGffvlkGrrrrqrrkkrGy-NH2] (Ac-[dR]G[dF][dF][dV][dL][dK]G[dR][dR][dR][dR][dQ][dR][dR][dK][dK][dR]G[dY]-NH2)	considerably reduced	inhibits the toxic effects of Aβ42	–	–
PINPs: RI-OR2-TAT covalently attached to nanoliposomes (cholesterol:sphingomyelin [1:1] with 2.5% maleimide) via an additional cysteine (Ac-[dR]G[dF][dF][dV][dL][dK]G[dR][dR][dR][dR][dQ][dR][dR][dK][dK][dR]G[dY][dC]; not fully specified (residue 21); also: C-terminal D-Cys coupled via its thiol to maleimide lipid of nanoliposome)	–	–	not toxic to cells	3.610 Absorbance units
